Results on two compounds are retold here after patent US8419943B2, “Method of removing protein-bound deleterious substances during extracorporeal renal replacement treatment” (Fresenius Medical Care Holdings, Inc., priority 2008, dated 2013).

Data set [1] deals with albumin (Homo sapiens, UniProt P02768). Put plainly: Competitive displacement of indoxyl sulfate by bilirubin in model uremic plasma. In kind it is binding. The conditions noted are these: uremic plasma (BUN about 55 mg/dL, albumin 3.82 g/dL) with 2 mMolar Bil-DT, 12 hours at 37° C.; control without Bil-DT 0.65 μg/ml. As for the experimental part:
Two samples of uremic plasma (blood urea nitrogen (BUN) of about 55 mg/dL, albumin concentration of 3.82 g/dL) including indoxyl sulfate were incubated for 12 hours at 37° C. One sample also included 2 mMolar bilirubin ditauride (Bil-DT).

For data set [2] the following is noted: normal adults; cited from earlier work.

Chain of albumin (P02768 25-609): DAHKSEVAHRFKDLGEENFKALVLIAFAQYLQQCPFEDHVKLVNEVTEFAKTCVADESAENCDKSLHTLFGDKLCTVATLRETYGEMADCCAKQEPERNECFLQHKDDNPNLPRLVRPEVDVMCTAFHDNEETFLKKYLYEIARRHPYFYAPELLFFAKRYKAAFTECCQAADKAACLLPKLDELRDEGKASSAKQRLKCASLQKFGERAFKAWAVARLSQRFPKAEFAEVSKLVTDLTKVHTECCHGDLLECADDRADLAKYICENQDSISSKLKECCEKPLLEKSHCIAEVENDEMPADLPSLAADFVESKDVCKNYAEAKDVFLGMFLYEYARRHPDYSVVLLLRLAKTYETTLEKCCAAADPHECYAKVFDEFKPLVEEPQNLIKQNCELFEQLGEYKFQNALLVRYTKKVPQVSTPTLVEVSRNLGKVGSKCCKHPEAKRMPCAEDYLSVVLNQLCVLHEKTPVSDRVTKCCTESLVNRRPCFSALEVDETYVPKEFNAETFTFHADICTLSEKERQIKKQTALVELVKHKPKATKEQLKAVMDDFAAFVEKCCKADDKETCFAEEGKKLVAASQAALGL

For bilirubin ditauride [Bil-DT], the “free indoxyl sulfate concentration” value in data set [1] came out at 0.93 µg/mL. In the case of `C=CC1=C(C)/C(=C/c2[nH]c(Cc3[nH]c(/C=C4\NC(=O)C(C)=C4C=C)c(C)c3CCC(=O)O)c(CCC(=O)O)c2C)NC1=O` [Bilirubin, bilirubin], the “non-toxic level of serum bilirubin concentration” value in data set [2] is “about 10 mg/dL”.
